A word on the IC50: it is the concentration needed to halve the response being measured.

Here are results for one compound from PMC6015222, “Targeting Phosphopeptide Recognition by the Human BRCA1 Tandem BRCT Domain to Interrupt BRCA1-Dependent Signaling” (Cell Chemical Biology, 2018).

Molecules are shown by their SMILES.

In one assay the target is T1, BRCA1 tBRCT (Homo sapiens, UniProt P38398).
T1 construct: BRCA1 tBRCT residues 1646-1859; made in house; host or cells: E. coli BL21(DE3)
The experiment in a line: Competitive MST: inhibition of BACH1 phosphopeptide binding to BRCA1 tBRCT. As to conditions: MST, BACH1 phosphopeptide vs BRCA1 tBRCT; mean ± SD of three experiments; NB, no binding. Here is the method:
Protein domains used in the assay were labeled with NT-647-NHS fluorescent dye using the Monolith NT™ Protein Labeling Kit (NanoTemper Technologies). Assays were carried out in 20mM Tris buffer, pH 7.4, with 200mM NaCl, 0.05% Tween-20 and 2mM DTT. For the direct binding assay, 10μl of labeled protein at a final concentration of 20nM was mixed with 10μl of test compound and incubated on ice for 10 min. For the competitive assay, 10μl of labeled protein at a final concentration of 20nM was mixed with 2μM cognate peptide substrate at the EC80 concentration determined by prior titration using a 16-point serial dilution by direct-binding MST. For both assays, samples prepared as above were centrifuged at 15000 rpm at 4°C for 10 min and 4μl of the supernatant was loaded into premium glass capillaries (NanoTemper Technologies). MST analysis was performed at MST power of 40% and LED power of 80%, at 22°C temperature using a Monolith NT.115 (NanoTemper Technologies). An initial “Capillary Scan” was performed to scan for fluorescence across the length of the capillary tray to determine the exact position of each capillary before the MST measurement was started. Test compounds were assayed at 16 different concentrations by serial dilution, and data were analysed using NanoTemper analysis software. Kd values were determined using “T-jump + Thermophoresis” settings. The change in thermophoresis between different experimental conditions was expressed as the change in the normalized fluorescence (ΔFnorm), which is defined as Fhot/Fcold (F-values correspond to average fluorescence values between defined areas in the curve under steady-state conditions under control (Fcold) or experimental (Fhot) conditions. Titration of the non-fluorescent ligand causes a gradual change in thermophoresis, which is plotted as ΔFnorm to yield a binding curve, which was then fitted to derive binding constants.

In a further assay the target is T2, MCPH1 tBRCT 2/3 (Homo sapiens, UniProt Q8NEM0).
T2 construct: MCPH1 tBRCT 2/3 residues 640-835; 6x His (N); made in house; host or cells: E. coli BL21(DE3)
T2 sequence (Q8NEM0 640-835): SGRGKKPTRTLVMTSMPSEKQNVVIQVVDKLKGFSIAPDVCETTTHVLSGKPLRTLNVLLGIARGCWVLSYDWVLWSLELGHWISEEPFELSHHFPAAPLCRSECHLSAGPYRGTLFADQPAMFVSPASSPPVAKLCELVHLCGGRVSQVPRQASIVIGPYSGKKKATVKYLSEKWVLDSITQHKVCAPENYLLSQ
The experiment in a line: Competitive MST selectivity: MCPH1 tBRCT. The class given is binding. The method, then: Protein domains used in the assay were labeled with NT-647-NHS fluorescent dye using the Monolith NT™ Protein Labeling Kit (NanoTemper Technologies). Assays were carried out in 20mM Tris buffer, pH 7.4, with 200mM NaCl, 0.05% Tween-20 and 2mM DTT. For the direct binding assay, 10μl of labeled protein at a final concentration of 20nM was mixed with 10μl of test compound and incubated on ice for 10 min. For the competitive assay, 10μl of labeled protein at a final concentration of 20nM was mixed with 2μM cognate peptide substrate at the EC80 concentration determined by prior titration using a 16-point serial dilution by direct-binding MST. For both assays, samples prepared as above were centrifuged at 15000 rpm at 4°C for 10 min and 4μl of the supernatant was loaded into premium glass capillaries (NanoTemper Technologies). MST analysis was performed at MST power of 40% and LED power of 80%, at 22°C temperature using a Monolith NT.115 (NanoTemper Technologies). An initial “Capillary Scan” was performed to scan for fluorescence across the length of the capillary tray to determine the exact position of each capillary before the MST measurement was started. Test compounds were assayed at 16 different concentrations by serial dilution, and data were analysed using NanoTemper analysis software. Kd values were determined using “T-jump + Thermophoresis” settings. […]

The next assay deals with HEK293 cells. The experiment in a line: Cell cycle profiles by flow cytometry after 4 Gy (damage-induced G2 arrest). Conditions: 10–100 μM Bractoppin or 100 μM CCBT2047 added 0.5 hr before radiation. The class given is cell-based, human. Here is the method:
HEK293 cells stably harboring plasmids for Tet-inducible expression of tBRCT domains were seeded on 12-well plates at 1.8 X10^5 cells/well. Cells were thymidine blocked and synchronously released into the cell cycle following irradiation at 4Gy, without or with exposure to compounds (at final concentrations with 0.5% DMSO) in serum-containing media for 16 h. Cells were re-suspended in 1x PBS, fixed with 80% ethanol, and permeabilized in buffer containing 0.1% Tween-20 in PBS (PBST), for 20’ at RT. DAPI staining was used to quantify nuclear DNA content. Analysis was performed using a Beckman Coulter Gallios analyzer, and quantified using the Dean-Jet algorithm in FlowJo software.
(In general: Flow cytometry measures light scatter and fluorescence of single cells or particles in a stream.)

The next assay concerns cells. As to the kind of experiment: Cellular effects of Bractoppin, summary over the cell assays. The class given is cell-based.

T1 sequence (P38398 1646-1859): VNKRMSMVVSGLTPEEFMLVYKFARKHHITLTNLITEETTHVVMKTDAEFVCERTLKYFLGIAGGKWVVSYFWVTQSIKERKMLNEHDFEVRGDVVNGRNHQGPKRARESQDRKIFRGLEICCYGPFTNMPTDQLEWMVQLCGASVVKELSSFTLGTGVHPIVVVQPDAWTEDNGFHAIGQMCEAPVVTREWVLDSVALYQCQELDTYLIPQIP

In the case of `O=C(c1ccc2nc(-c3ccccc3)[nH]c2c1)N1CCN(Cc2ccccc2F)CC1` [Bractoppin, (4-(2-fluorobenzyl)piperazin-1-yl) (2-phenyl-1H-benzo[d]imidazol-6-yl) methanone], at BRCA1 tBRCT, the IC50 came out at 74 nM. Moreover, the “binding to fluorescently labeled MCPH1 tBRCT domain” value at MCPH1 tBRCT 2/3 is “does not detectably bind”. Moreover, the “effect on damage-induced G2 arrest” value in the assay on HEK293 cells is “inhibited in a dose-dependent manner”. In addition, the “concentration at which cellular effects are elicited” value in the assay on cells is 10 to 100 µM.
